Legend:
Assay type in all cases: cell-based, human
HaCaT cells = test: Safety evaluation: cell viability of HaCaT cells by WST-1 method; conditions: 24 hours
Experimental: The safety of Fraglide-1 was examined by a viable cell counting method using a water-soluble tetrazolium salt (WST-1). Specifically, HaCaT cells were suspended in DMEM medium at the concentration of 1×10^5 cells/mL. The obtained cell suspension was seeded in a white 96-well plate (ThermoFisher Scientific; Catalogue No. 136102) in an amount of 100 μL per well so that the number of cells per well was 10,000 cells/well. After 24 hours incubation at 37° C. and 5% CO2 in accordance with a conventional method, DMEM medium was removed and then either 100 μL of DMEM medium containing Fraglide-1 at a predetermined concentration or, as a control, 100 μL of DMEM medium not containing Fraglide-1 was added, followed by further incubation for 24 hours at 37° C. and 5% CO2. After the incubation for 24 hours, the number of viable cells was measured by using a premix reagent containing WST-1 (“Premix WST-1 Cell Proliferation Assay System”, Catalogue No. MK400, Takara Bio Inc., Shiga, Japan) in accordance with the procedure described in Experiment 1-2. The results shown in FIG. 16 are the mean of values obtained from three independent experiments, and the error bars represent standard error (SE).

artemin mRNA = test: Inhibition of FICZ-induced artemin mRNA expression in HaCaT cells, quantitative PCR
Experimental: First, HaCaT cells (CLI; Catalogue No.: 300493) were suspended in a DMEM medium at the density of 1×10^5 cell/mL, and 100 μL of the thus obtained suspension was added to each well of white 96-well plates (Thermo Fisher Scientific, MA, U.S.A.; Catalogue No.: 136102) so that the number of the cells in each well was 10,000 cells/well. In accordance with the conventional method, the cells were incubated for 24 hours at 37° C. and 5% CO2. Thereafter, the DMEM medium was removed, and 100 μL of a new DMEM medium containing both FICZ at predetermined concentration (500 nM or 5,000 nM) and Fraglide-1 at a predetermined concentration (0 nM or 250 nM). After incubation for 24 hours at 37° C. and 5% CO2, the total RNA was extracted, cDNA was prepared, and quantitative PCR was carrier out using the obtained cDNA in the same manner as described in Experiment 2. In FIG. 7, the results obtained for each sample were shown as a relative value, with the expression level of artemin mRNA in HaCaT cells incubated 24 hours in DMEM medium containing neither FICZ nor Fraglide-1 set to 1.
As described above, Fraglide-1 inhibited production of artemin induced by FICZ. Then, the following experiment was conducted in order to quantitatively evaluated the effect of inhibiting artemin production exerted by Fraglide-1. Briefly, HaCaT cells were treated with FICZ and Fraglide-1 in the same manner as in Experiment 3-1 except that the concentration of FICZ was set to 5,000 nM and the concentration of Fraglide-1 was set to 0 μM, 0.01 μM, 0.1 μM, 1 μM, 10 μM, and 100 µM, and then the total RNA was extracted, cDNA was prepared, and quantitative PCR was carried out. Based on the obtained result, the inhibition rate (Inhibition (%)) of the artemin mRNA expression triggered by FICZ when a given concentration of Fraglide-1 was added to the cell culture medium together with 5,000 nM of FICZ was calculated in accordance with the following formula. […]

[1] = system: matrix metalloprotease 9 (MMP9) mRNA; test: MMP9 mRNA expression in HaCaT cells contacted with test substance, quantitative PCR; conditions: HaCaT cells, 24 hours
Experimental: In this experiment, the effect of Fraglide-1 on the expression of MMP9 in the level of mRNA was examined first. Specifically, HaCaT cells were treated with Fraglide-1 in the same manner as described in Experiment 3-1 except that HaCaT cells were incubated for 24 hours in the medium containing 0 μM, 1 μM, 10 μM, and 100 μM of Fraglide-1 instead of being incubated for 24 hours in the medium containing both FICZ and Fraglide-1. The total RNA was then extracted, cDNA was prepared, and the quantitative PCR was performed using the obtained cDNA. Herein, the procedure of the quantitative PCR was the same as described in Experiment 3-1 except that the primers shown in below Table 4 were used. In this experiment, the expression of MMP2 mRNA was also quantified in addition to MMP9 mRNA. MMP2 is known as a MMP which is not transcriptionally regulated by a xenobiotic responsive element (XRE).
(§1) In FIG. 9 and FIG. 10, the results obtained for each sample were shown as a relative value, with the mRNA expression level of MMP9 or MMP2 in the HaCaT cells incubated for 24 hours in DMEM medium without FICZ (i.e., the non-treated HaCaT cells) set to 1. The results shown in FIG. 9 and FIG. 10 were the mean obtained from three independent experiments. The error bars represent the standard deviation (SD).
Next, experiments were performed to inhibit MMP9 and MMP2 in HaCaT cells using retinoic acid (CAS RN: 302-79-4) and nicotinamide (CAS RN: 98-92-0), which are known to be substances having anti-wrinkle effect. Briefly, HaCaT cells were made in contact with retinoic acid and nicotinamide in the same manner as in Experiment 4-1 except that retinoic acid and nicotinamide were used instead of Fraglide-1. Then, the total RNA was extracted, cDNA was prepared, and the quantitative PCR was carried out using the obtained cDNA.
as §1, with “FIG. 12” for “FIG. 9”, “FIG. 13,” for “FIG. 10,”, “medium containing neither retinoic acid nor nicotinamide” for “medium without FICZ”, “FIG. 13” for “FIG. 10”

## O=C1C=C(c2ccccc2)C(O)O1 (centres unmarked) [Fraglide-1, 5-hydroxy-4-phenyl-2(5H)butenolide]
HaCaT cells; 500 μM, HaCaT cells
  cell viability: more than 50%
HaCaT cells; read-out: LC50 (Median Lethal Concentration) against HaCaT cells
  CC50: > 500 µM
Artemin mRNA; 100 nM (0.1 μM) Fraglide-1, 5,000 nM FICZ
  Inhibition (%) of artemin mRNA expression triggered by FICZ: approximately 50%
Artemin mRNA; 250 μM Fraglide-1 plus 500 nM or 5,000 nM FICZ, 24 hours
  expression level of artemin mRNA compared to cells without FICZ: no increase in the expression level of artemin mRNA was observed
Artemin mRNA; Fraglide-1 0.01-100 μM, 5,000 nM FICZ
  inhibition of FICZ-induced expression of artemin, dependence on concentration: in the concentration dependent manner
[1]; 1 μM
  decrease of expression level of MMP9 mRNA compared to medium without Fraglide-1: approximately 42%
[1]; 10 μM
  decrease of expression level of MMP9 mRNA compared to medium without Fraglide-1: ~52%
[1]; 100 μM
  decrease of expression level of MMP9 mRNA compared to medium without Fraglide-1: ~80%
